The text below walks through data of patent publication US20150344466A1 (SUMITOMO CHEMICAL COMPANY, LIMITED, priority 2013, published 2015).

Type in all cases: in vivo
For one assay, the system named is Aphis gossypii. In words: Soil treatment test on Aphis gossypii on cucumber (Test Example 9). The note with it: 168 h, 5 ml treatment solution in contact with soil, seven days after putting insects, read-out: controlling value. On the procedure: On the other hand, cucumber was planted in a polyethylene cup with a plurality of small holes on the bottom and grown until the first true leaf was spread. A cup in which cucumber was planted was put in a plastic cup with 5 ml of the test treatment solution, so that the soil in the cup was in contact with the treatment liquid. After five days, about 20Aphis gossypii were allowed to parasitize the cucumber, and seven days after putting insects, the number of Aphis gossypii was investigated, and the controlling value was calculated according to the following equation. Controlling value (%)={1−(Cb×Tai)/([…])}×100 In the equation, the symbols represent as follows. Cb: the number of insects in a non-treated section before treatment Cai: the number of insects in a non-treated section on observation Tb: the number of insects in a treated section before treatment Tai: the number of insects in a treated section on observation

Assay [1] relates to Culex pipiens pallens. The assay is described as follows: Larvicidal test on Culex pipiens pallens, one day (Test Example 6). To be noted: 24 h; last-instar larvae of Culex pipiens pallens; 3.5 ppm in water; one day later; read-out: death rate. On the procedure: Each of the formulations of Compounds of Present Invention (39), (63), (71), (72), (92), (93), (95), (106), (150), (171), (170), (181), (182), (183), (187), (188), (189), (190), (191), (192), (200), (201), (201), (234), (246), (290) and (299) obtained in Formulation Example 15 was diluted with water, so as to have a concentration of the active ingredient of 500 ppm, to prepare a test drug solution.
20 last-instar larvae of Culex pipiens pallens were released into a liquid to which 0.7 ml of the above test drug solution was added to 100 ml of ion-exchanged water (a concentration of the active ingredient of 3.5 ppm). One day later, the life and death of the Culex pipiens pallens was examined, and the death rate was calculated. The death rate was calculated by the following equation.
Death rate (%)=(Number of dead insects/Number of tested insects)×100

Assay [2] has as its system Blattella germanica. In words: Knockdown spray test on Blattella germanica, 2.0% w/v oil formulation (Test Example 1). To be noted: topical, 0.25 h, active ingredient 2.0% w/v, 1.5 ml sprayed, within 15 minutes, read-out: knockdown rate of the test insects within 15 minutes. In short, it runs like this: (§1)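 Ten German cockroaches (5 males, 5 females) in a mesh-bottomed, butter-walled container were sprayed with 1.5 ml test solution from 60 cm at 0.42 kg/cm^2 inside a chamber.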

For assay [3], the system named is Musca domestica. In words: Knockdown spray test on adult Musca domestica (Test Example 3). The note with it: topical, 0.25 h, active ingredient 2.0% w/v, 0.5 ml sprayed, within 15 minutes, read-out: knockdown rate of the test insects within 15 minutes. Put shortly:
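Ten adult house flies (5 male, 5 female) in a gauze-covered cup sprayed with 0.5 ml test solution from 30 cm at 0.9 kg/cm^2 inside a chamber, then removed. Knocked-down flies counted at 2, 5 and 15 min and expressed as % of insects tested.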

The test system of assay [4] is Culex pipiens pallens. In words: Knockdown spray test on adult Culex pipiens pallens (Test Example 4). To be noted: topical, 0.25 h, active ingredient 0.1% w/v, 0.5 ml sprayed, within 15 minutes, read-out: knockdown rate of the test insects within 15 minutes. In short, it runs like this: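 Ten adult mosquitoes in a gauze-covered cup inside a 46×46×70 cm chamber were sprayed with 0.5 ml of test solution from 30 cm at 0.4 kg/cm^2. The cup was removed at once, and knocked-down insects were counted at 2, 5 and 15 min; knockdown rate (%) = knocked-down/tested ×100.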

The subject of assay [5] is Culex pipiens pallens. The assay is described as follows: Larvicidal test on Culex pipiens pallens, eight days (Test Example 7). To be noted: 192 h; last-instar larvae of Culex pipiens pallens; 3.5 ppm in water; eight days later; read-out: death rate. Put shortly: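 Twenty last-instar larvae placed in 100 ml ion-exchanged water containing test drug at 3.5 ppm active ingredient. Mortality scored after eight days; death rate = dead/tested × 100.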

For another assay, the system named is Spodoptera litura. The assay is described as follows: Foliar spray test on Spodoptera litura on cabbage (Test Example 11). The note with it: 96 h, fourth instar larvae of Spodoptera litura on cabbage, 500 ppm spray 20 ml/cup, after 4 days, read-out: controlling value. On the procedure: On the other hand, cabbage was planted in a polyethylene cup, and grown until the third-fourth true leaf was spread. The test spray solution was sprayed to the cabbage at a ratio of 20 ml/cup. After the drug solution sprayed orn the cabbage was dried, 10 fourth instar larvae of Spodoptera litura were allowed to parasitize the cabbage. After 4 days, the number of surviving Spodoptera litura on the cabbage leaves was examined, and the controlling value was calculated according to the following equation. Controlling value (%)={1−(Cb×Tai)/([…])}×100 In the equation, the symbols represent as follows. Cb: the number of insects in a non-treated section before treatment Cai: the number of insects in a non-treated section on observation Tb: the number of insects in a treated section before treatment Tai: the number of insects in a treated section on observation

The subject of assay [6] is Blattella germanica. In words: Knockdown spray test on Blattella germanica, 0.1% w/v oil formulation (Test Example 2). The note with it: topical, 0.25 h, active ingredient 0.1% w/v, 1.5 ml sprayed, within 15 minutes, read-out: knockdown rate of the test insects within 15 minutes. In short, it runs like this:
as §1

Another assay has as its system Plutella xylostella. In words: Foliar spray test on Plutella xylostella on cabbage (Test Example 10). To be noted: 120 h, third instar larvae of Plutella xylostella on cabbage, 500 ppm spray 20 ml/cup, after five days, read-out: controlling value. Put shortly: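 Cabbage at the third–fourth true-leaf stage sprayed with test solution at 20 ml/cup, dried, then infested with 10 third-instar larvae. Insects counted after five days; controlling value (%) calculated from treated and non-treated counts before treatment and at observation.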

The test system of assay [7] is Musca domestica. In words: Filter paper/sucrose bait death rate test on Musca domestica (Test Example 5). To be noted: female imagoes of Musca domestica, 0.7 ml on filter paper, after 24 hours. Put shortly: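 Filter paper in a 5.5 cm cup dosed with 0.7 ml test drug solution, with 30 mg sucrose as bait. Ten female adult houseflies released and cup sealed. Dead insects counted after 24 h; death rate (%) = dead/tested × 100.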

`CCCc1cc(C(=O)NCC2CCOC2)n(C)n1` (stereo not drawn) [(3), N-(tetrahydrofuran-3-ylmethyl)-1-methyl-3-propyl-1H-pyrazole-5-carboxamide]: the pest or weed control at 500 ppm in the assay on Aphis gossypii was not below 90%.

On to `CCCCn1cc(C(=O)NCC2CCOC2)cn1` (stereo not drawn) [(51), N-(tetrahydrofuran-3-ylmethyl)-1-butyl-1H-pyrazole-4-carboxamide], for which the pest or weed control at 500 ppm in the assay with Aphis gossypii was not below 90%.

Turning to `Cn1nc(COCc2ccccc2)cc1C(=O)NCC1CCOC1` (stereo not drawn) [(52), N-(tetrahydrofuran-3-ylmethyl)-3-benzyloxymethyl-1-methyl-1H-pyrazole-5-carboxamide], in the assay with Aphis gossypii, the pest or weed control at 500 ppm was not below 90%.

In the case of `CCCCc1nc(C(=O)NCC2CCOC2)no1` (stereo not drawn) [(57), N-(tetrahydrofuran-3-ylmethyl)-5-butyl-1,2,4-oxadiazole-3-carboxamide], the pest or weed control at 500 ppm with Aphis gossypii was not below 90%.

For the compound `CCCCc1noc(C(=O)NCC2CCOC2)n1` (stereo not drawn) [(58), N-(tetrahydrofuran-3-ylmethyl)-3-butyl-1,2,4-oxadiazole-5-carboxamide], the pest or weed control at 500 ppm in the assay on Aphis gossypii was not below 90%.

For `O=C(NCC1CCOC1)c1cc(COCc2ccc(C(F)(F)F)cc2)on1` (stereo not drawn) [(63), N-(tetrahydrofuran-3-ylmethyl)-5-(4-trifluoromethylbenzyloxymethyl)isoxazole-3-carboxamide], the pest or weed control at 3.5 ppm with Culex pipiens pallens [1] and in the assay with Culex pipiens pallens [5] was not below 90% throughout. The pest or weed control at 2 % strength with Blattella germanica [2] and with Musca domestica [3] was not below 80% throughout. Besides, the pest or weed control at 0.1 % strength in the assay with Culex pipiens pallens [4] is not below 80%.

As for `O=C(NCC1CCOC1)c1cc(COCc2ccc(Cl)c(Cl)c2)on1` (stereo not drawn) [(72), N-(tetrahydrofuran-3-ylmethyl)-5-(3,4-dichlorobenzyloxymethyl)isoxazole-3-carboxamide], the pest or weed control at 500 ppm in the assay on Spodoptera litura is not below 80%; in the assay on Plutella xylostella, not below 90%; with Musca domestica [7], not below 90%. In the assay on Culex pipiens pallens [1], the pest or weed control at 3.5 ppm is not below 90%. The pest or weed control at 0.1 % strength in the assay with Blattella germanica [6] and with Culex pipiens pallens [4] was not below 80% in each case.

Take `O=C(NCC1CCOCC1)c1cc(COCc2ccc(Br)cc2)on1` [(92), N-(tetrahydropyran-4-ylmethyl)-5-(4-bromobenzyloxymethyl)isoxazole-3-carboxamide]: the pest or weed control at 3.5 ppm with Culex pipiens pallens [1] and with Culex pipiens pallens [5] was not below 90% throughout. Moreover, the pest or weed control at 0.1 % strength in the assay on Blattella germanica [6] and in the assay with Culex pipiens pallens [4] was not below 80% in each case. In the assay with Plutella xylostella, the pest or weed control at 500 ppm was not below 90%.

Turning to `O=C(NCC1CCOC1)c1cc(COCc2ccc(OC(F)(F)F)cc2)on1` (stereo not drawn) [(93), N-(tetrahydrofuran-3-ylmethyl)-5-(4-trifluoromethoxybenzyloxymethyl)isoxazole-3-carboxamide], the pest or weed control at 3.5 ppm in the assay on Culex pipiens pallens [1] and in the assay with Culex pipiens pallens [5] was not below 90% in each case. The pest or weed control at 0.1 % strength in the assay with Blattella germanica [6] and with Culex pipiens pallens [4] was not below 80% each time. Further, in the assay on Plutella xylostella, the pest or weed control at 500 ppm was not below 90%.

Consider `O=C(NCC1CCOC1)c1cc(CCCCCO)on1` (stereo not drawn) [(142), N-(tetrahydrofuran-3-ylmethyl)-5-(5-hydroxypentyl)isoxazole-3-carboxamide], for which, in the assay with Aphis gossypii, the pest or weed control at 500 ppm was not below 90%.

`O=C(NCC1CCOC1)c1cc(COc2ccc(OC(F)(F)F)cc2)on1` (stereo not drawn) [(190), N-(tetrahydrofuran-3-ylmethyl)-5-(4-trifluoromethoxyphenoxymethyl)isoxazole-3-carboxamide]: the pest or weed control at 500 ppm in the assay on Spodoptera litura was not below 80%; with Plutella xylostella it was not below 90%. The pest or weed control at 3.5 ppm in the assay on Culex pipiens pallens [1] and in the assay with Culex pipiens pallens [5] was not below 90% throughout. Further, the pest or weed control at 0.1 % strength in the assay on Blattella germanica [6] and with Culex pipiens pallens [4] was not below 80% each time.

As to `O=C(NCC1CCOCC1)c1cc(COc2ccc(OC(F)(F)F)cc2)on1` [(191), N-(tetrahydropyran-4-ylmethyl)-5-(4-trifluoromethoxyphenoxymethyl)isoxazole-3-carboxamide], the figures for the pest or weed control at 500 ppm in the assay with Spodoptera litura and with Plutella xylostella were not below 80% and not below 90%, respectively. For the same compound, the pest or weed control at 3.5 ppm in the assay on Culex pipiens pallens [1] and in the assay with Culex pipiens pallens [5] was not below 90% throughout. Besides, in the assay on Culex pipiens pallens [4], the pest or weed control at 0.1 % strength is not below 80%.

Regarding `O=C(NCC1CCOC1)c1cc(COc2cccc(OC(F)(F)F)c2)on1` (stereo not drawn) [(200), N-(tetrahydrofuran-3-ylmethyl)-5-(3-trifluoromethoxyphenoxymethyl)isoxazole-3-carboxamide], the pest or weed control at 500 ppm is not below 80% in the assay with Spodoptera litura and not below 90% in the assay with Musca domestica [7]. For the same compound, the pest or weed control at 3.5 ppm with Culex pipiens pallens [1] and in the assay on Culex pipiens pallens [5] was not below 90% each time. Moreover, the pest or weed control at 0.1 % strength in the assay on Blattella germanica [6] and in the assay with Culex pipiens pallens [4] was not below 80% throughout.

Regarding `O=C(NCC1CCOCC1)c1cc(COc2cccc(OC(F)(F)F)c2)on1` [(201), N-(tetrahydropyran-4-ylmethyl)-5-(3-trifluoromethoxyphenoxymethyl)isoxazole-3-carboxamide], the pest or weed control at 500 ppm in the assay on Spodoptera litura is not below 80%; in the assay on Plutella xylostella it was not below 90%. The pest or weed control at 3.5 ppm in the assay on Culex pipiens pallens [1] and in the assay on Culex pipiens pallens [5] was not below 90% each time. Besides, in the assay on Culex pipiens pallens [4], the pest or weed control at 0.1 % strength was not below 80%.

In the case of `O=C(NCC1CCOC1)c1cc(CCCc2ccc(Cl)c(Cl)c2)on1` (stereo not drawn) [(246), N-(tetrahydrofuran-3-ylmethyl)-5-[3-(3,4-dichlorophenyl)propyl]isoxazole-3-carboxamide], the pest or weed control at 500 ppm in the assay on Spodoptera litura was not below 80%; with Plutella xylostella it was not below 90%; with Musca domestica [7], not below 90%. Further, the pest or weed control at 3.5 ppm in the assay on Culex pipiens pallens [1] is not below 90%. For the same compound, the pest or weed control at 0.1 % strength in the assay with Blattella germanica [6] and in the assay on Culex pipiens pallens [4] was not below 80% throughout.

Take `Cc1c(C(=O)NCC2CCOC2)noc1CCCc1ccc2ccccc2c1` (stereo not drawn) [(290), N-(tetrahydrofuran-3-ylmethyl)-4-methyl-5-[3-(2-naphthyl)propyl]isoxazole-3-carboxamide]: the results for the pest or weed control at 500 ppm in the assay on Spodoptera litura, with Plutella xylostella and in the assay with Musca domestica [7] were not below 80%, not below 90% and not below 90%, respectively. Moreover, in the assay on Culex pipiens pallens [1], the pest or weed control at 3.5 ppm is not below 90%. Moreover, the pest or weed control at 0.1 % strength in the assay on Blattella germanica [6] and in the assay on Culex pipiens pallens [4] was not below 80% in each case. In addition, the pest or weed control at 2 % strength in the assay with Blattella germanica [2] and in the assay with Musca domestica [3] was not below 80% each time.
